Test results published in patent US20230114728A1 (Venatorx Pharmaceuticals, Inc., priority 2019, published 2023).
≈ marks a conversion by molar mass, not a printed value. Read-outs that look alike come from different tables or passages of the source.

Experiments:
E. coli K12 PBP3 = target: T1, E. coli K12 PBP3 (Escherichia coli, UniProt P0AD68); experiment: biochemical; type: binding
T1 construct: made in house
Source text: (§1) Example I: Experimental Method for Penicillin-Binding Protein Binding Assays with Bocillin-FL Via Fluorescence Polarization
(§2) To determine the ability of boronic acid-based test PBP inhibitors to bind Penicillin Binding Proteins (PBPs), Bocillin-FL (fluorescently-labeled penicillin V; ThermoFisher Scientific) was used in a fluorescence polarization (FP) competition binding assay to assess inhibitor binding to PBP2, PBP3 or PBP4 from Escherichia coli (K12), PBP3 from Pseudomonas aeruginosa (PA01), PBP1a, PBP2 and PBP3 from Acinetobacter baumannii (ATCC 19606), and PBP2 from Neiserria gonorrheae (FA19). PBPs were cloned and purified as described previously (E. coli PBPs, King, D. T, et al., ACS Infectious Diseases 2015, 1, 175-184; P. aeruginosa PBP3, Han et. al., PNAS 2010, 107 (51), 22002-22007; A. baumannii PBPs, Penwell et. al., Antimicrob. Agents Chemother. 2015, 59 (3), 1680-1689; N. gonorrhoeae PBP2, Singh et. al., J Biol. Chem. 2019, 294 (38), 14020-14032). To establish assay conditions for competition binding, enzyme titration/saturation binding experiments were initially performed. Bocillin-FL was prepared at 0.2 μM in a buffer comprised of 50 mM Hepes (pH 8.0), 300 mM NaCl and 5% (v/v) glycerol for reactions with E. coli, P. aeruginosa and N. gonorrhoeae PBPs, and 25 mM Tris (pH 8.0), 200 mM NaCl and 10% (v/v) glycerol and 0.005% (v/v) Tween 20 for reactions with A. baumannii PBPs. Saturation binding was performed by mixing 40 μl of PBP solutions ranging in concentrations from 0-24 μM with 40 μl of the 0.2 μM Bocillin-FL solution, in individual wells of a black 384-well microplate. FP was measured immediately upon mixing (Excitation, 490 nm; Emission, 520 nm; g-factor, 0.96), using a Cytation3 (BioTek) microplate reader and measured continuously for up to 120 minutes. […] The competition binding assay (80 μl final volume) was validated using beta-lactams and PBPs at final concentrations of: 1.5 μM, E. coli PBP3; 0.75 μM, P. aeruginosa PBP3; 1 μM A. baumannii PBP1a; 2.5 μM A. baumannii PBP2; 0.2 μM A. baumannii PBP3; and […] N. gonorrhoeae PBP2. Bocillin-FL was at 0.1 μM (0.05 μM with A. baumannii PBP1a) and beta-lactam concentrations ranged from 0-1000 μM. […] Bocillin-FL was added and the FP immediately measured for up to 60 minutes (90 minutes for E. coli PBP2). […] The beta-lactam potency was reported as the concentration of beta-lactam required to reduce the amount of PBP bound-Bocillin-FL by 50% (EC50). […] Binding assays for boronic acid PBP inhibitors were performed in an identical fashion for the respective PBPs

P. aeruginosa PBP3 = target: T2, P. aeruginosa PBP3 (Pseudomonas aeruginosa, UniProt G3XD46); experiment: Bocillin-FL fluorescence polarization competition binding assay, P. aeruginosa PBP3; details: fluorescence polarization competition binding assay using Bocillin-FL
T2 construct: made in house
T2 sequence (G3XD46 whole entry): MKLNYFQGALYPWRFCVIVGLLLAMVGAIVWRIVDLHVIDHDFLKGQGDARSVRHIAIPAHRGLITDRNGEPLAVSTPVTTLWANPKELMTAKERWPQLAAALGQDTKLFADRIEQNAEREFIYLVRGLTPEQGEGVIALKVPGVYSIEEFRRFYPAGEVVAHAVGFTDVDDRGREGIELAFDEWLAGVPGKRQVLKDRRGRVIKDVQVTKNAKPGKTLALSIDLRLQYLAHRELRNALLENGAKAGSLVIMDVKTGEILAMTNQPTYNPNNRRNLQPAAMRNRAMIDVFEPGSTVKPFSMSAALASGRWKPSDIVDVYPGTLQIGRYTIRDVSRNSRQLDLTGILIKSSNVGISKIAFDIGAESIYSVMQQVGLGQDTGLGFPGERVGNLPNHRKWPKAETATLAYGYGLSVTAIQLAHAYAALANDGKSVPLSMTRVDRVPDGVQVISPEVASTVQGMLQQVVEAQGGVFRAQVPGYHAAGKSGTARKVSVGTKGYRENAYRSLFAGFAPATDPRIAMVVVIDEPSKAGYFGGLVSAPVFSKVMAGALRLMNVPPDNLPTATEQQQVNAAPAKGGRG
Source text: as §1, §2

A. baumannii ATCC 19606 = experiment: Broth microdilution MIC in CAMHB; type: cell-based; details: Acinetobacter baumannii, ATCC19606; MHB; read-out: Minimum Inhibitory Concentration, A. baumannii ATCC 19606
Protocol: (§3) Example III: In Vitro Antibacterial Assays
(§4) To determine the ability of test compounds to inhibit the growth of bacterial strains, classic cell based broth microdilution minimum inhibitory concentration (MIC) assays were employed. MIC assays are performed according to CLSI methods except where otherwise noted (CLSI, 2018 and CLSI, 2019). The reference type strain E. coli ATCC 25922; the wild-type parent strain E. coli AG100; the hyper-permeable E. coli 901C and E. coli D22; and the E. coli AG100A strain lacking the acrAB efflux pump encoding genes were used to determine the ability of the PBP inhibitors to penetrate the outer membrane of gram-negative bacteria and inhibit bacterial growth. […] The P. aeruginosa ATCC 27853 and A. baumannii ATCC 19606, along with the hyper-permeable P. aeruginosa ATCC 35151 and an engineered efflux pump-compromised strain of P. aeruginosa (ΔmexAB-oprM) were used to determine the ability of PBP inhibitors to penetrate the outer membrane of P. aeruginosa and A. baumannii and assess antibacterial activity against these important gram-negative organisms.
(§5) Briefly, cryo-preserved bacterial cultures of challenge strains are streaked for isolation on appropriate agar medium, in this case cation-adjusted Mueller Hinton agar. Following incubation to allow growth of the colonies, plates are sealed with parafilm and stored refrigerated for up to two weeks. For preparation of assay inoculum and to ensure low variability, at least 5 colonies are picked from the agar plates with an inoculating loop and aseptically transferred to a culture tube containing 3 mL of cation-adjusted Mueller Hinton broth (CAMHB). The broth culture is grown for 3-5 hours at 37° C. with shaking at 200 rpm. Meanwhile, 2-fold serial dilutions of test compounds are conducted in a 96-well plate with a final volume of 75 μL per well at 2-fold the final desired concentration. After the dilution plates are set up the growing cultures are then diluted in a cuvette containing CAMHB and the optical density is measured at 600 nm. The inoculum is diluted such that 75 μL of this culture in CAMHB results in a starting bacterial concentration of 2-8×10^5 CFU/mL when added to the dilution plates. The plates are incubated for 16-20 hours for Enterobacteriaceae and Pseudomonas and 20-24 hours for Acinetobacter at 37° C. The MIC values are read visually as the lowest concentration well with no bacterial growth.

E. coli 901C = experiment: Broth microdilution MIC in CAMHB; type: cell-based; details: Escherichia coli, MHB, read-out: Minimum Inhibitory Concentration, E. coli 901C
Protocol: as §3, §4, §5

E. coli AG100A = experiment: Broth microdilution MIC in CAMHB; type: cell-based; details: Escherichia coli, read-out: Minimum Inhibitory Concentration, E. coli AG100A
Protocol: as §3, §4, §5

E. coli AG100 = experiment: Broth microdilution MIC in CAMHB; type: cell-based; details: Escherichia coli, MHB, read-out: Minimum Inhibitory Concentration, E. coli AG100
Protocol: as §3, §4, §5

E. coli ATCC 25922 = experiment: Broth microdilution MIC in CAMHB; type: cell-based
Protocol: as §3, §4, §5

E. coli D22 = experiment: Broth microdilution MIC in CAMHB; type: cell-based; details: Escherichia coli, MHB, read-out: Minimum Inhibitory Concentration, E. coli D22
Protocol: as §3, §4, §5

[1] = test system: K. pneumoniae 848844 producing SHV-11 and KPC-2; experiment: Broth microdilution MIC in CAMHB; type: cell-based; details: Klebsiella pneumoniae, read-out: Minimum Inhibitory Concentration, K. pneumoniae 848844
Protocol: as §3, §4, §5

[2] = test system: K. pneumoniae SI-117 producing VIM-1; experiment: Broth microdilution MIC in CAMHB; type: cell-based; details: Klebsiella pneumoniae, read-out: Minimum Inhibitory Concentration, K. pneumoniae SI-117
Protocol: as §3, §4, §5

[3] = test system: K. pneumoniae UMM producing SHV-5 and KPC-2; experiment: Broth microdilution MIC in CAMHB; type: cell-based; details: Klebsiella pneumoniae, read-out: Minimum Inhibitory Concentration, K. pneumoniae UMM
Protocol: as §3, §4, §5

[4] = test system: P. aeruginosa (ΔmexAB-oprM); experiment: Broth microdilution MIC in CAMHB; type: cell-based; details: Pseudomonas aeruginosa, read-out: Minimum Inhibitory Concentration, P. aeruginosa ΔmexAB-OprM
Protocol: as §3, §4, §5

P. aeruginosa ATCC 27853 = experiment: Broth microdilution MIC in CAMHB; type: cell-based; details: Pseudomonas aeruginosa, ATCC27853; MHB; read-out: Minimum Inhibitory Concentration, P. aeruginosa ATCC 27853
Protocol: as §3, §4, §5

P. aeruginosa ATCC 35151 = experiment: Broth microdilution MIC in CAMHB; type: cell-based; details: Pseudomonas aeruginosa, ATCC35151; MHB; hyper-permeable strain; read-out: Minimum Inhibitory Concentration, P. aeruginosa ATCC 35151
Protocol: as §3, §4, §5

[5] = E. coli AG100 (wild-type parent)
[6] = Escherichia coli, ATCC25922; E. coli ATCC 25922; MHB; read-out: Minimum Inhibitory Concentration, E. coli 25922
[7] = wild-type parent strain E. coli AG100
[8] = Escherichia coli, ATCC25922; MHB; E. coli ATCC 25922; read-out: Minimum Inhibitory Concentration, E. coli 25922

T1 sequence (P0AD68 1-577): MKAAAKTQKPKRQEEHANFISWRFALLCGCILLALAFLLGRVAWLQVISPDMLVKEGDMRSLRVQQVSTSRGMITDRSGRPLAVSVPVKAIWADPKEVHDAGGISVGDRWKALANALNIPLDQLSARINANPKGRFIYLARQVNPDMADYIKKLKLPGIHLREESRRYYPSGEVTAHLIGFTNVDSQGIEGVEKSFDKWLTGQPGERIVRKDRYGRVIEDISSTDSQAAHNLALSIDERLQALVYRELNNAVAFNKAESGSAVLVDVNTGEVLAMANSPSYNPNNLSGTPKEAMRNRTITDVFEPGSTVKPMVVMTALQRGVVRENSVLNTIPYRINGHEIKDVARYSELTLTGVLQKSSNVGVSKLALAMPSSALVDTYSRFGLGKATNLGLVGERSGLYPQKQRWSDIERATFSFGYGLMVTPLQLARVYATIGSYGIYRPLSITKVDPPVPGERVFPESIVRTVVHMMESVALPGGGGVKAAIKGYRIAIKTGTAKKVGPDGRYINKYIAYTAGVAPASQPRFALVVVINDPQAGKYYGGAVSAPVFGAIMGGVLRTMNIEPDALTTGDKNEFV

Compound | EC50 (E. coli K12 PBP3) [µM] | P. aeruginosa PBP3 Potency (P. aeruginosa PBP3) | MIC (A. baumannii ATCC 19606) [µg/mL] | MIC (E. coli 901C; E. coli 901C (hyper-permeable)) [µg/mL] | MIC (E. coli AG100A) [µg/mL] | MIC (E. coli AG100; [5]) [µg/mL] | MIC (E. coli ATCC 25922; [6]) [µg/mL] | MIC (E. coli D22; E. coli D22 (hyper-permeable)) [µg/mL] | MIC [1] [µg/mL] | MIC [2] [µg/mL] | MIC [3] [µg/mL] | MIC [4] [µg/mL] | MIC (P. aeruginosa ATCC 27853) [µg/mL] | MIC (P. aeruginosa ATCC 35151) [µg/mL] | MIC (E. coli 901C; hyper-permeable E. coli 901C) [µg/mL] | MIC (E. coli AG100; [7]) [µg/mL] | MIC (E. coli ATCC 25922; [8]) [µg/mL] | MIC (E. coli D22; hyper-permeable E. coli D22) [µg/mL]
NS(=O)(=O)Nc1ccc(F)c([C@H](NC(=O)N2CCN(CC(F)(F)F)C(=O)C2=O)C(=O)N[C@H]2Cc3cccc(C(=O)O)c3OB2O)c1 (single isomer, unassigned) [Example 218] | 30 to 500 | C (C represents a potency between 10 and 30 μM) | > 128 | 0.5 to 1 (≈ 0.741 to 1.48 µM) | 32 to 64 (≈ 47.5 to 94.9 µM) | > 128 | > 128 | 8 to 16 (≈ 11.9 to 23.7 µM) | > 128 | > 128 | > 128 | 32 to 64 (≈ 47.5 to 94.9 µM) | > 128 | 8 to 16 (≈ 11.9 to 23.7 µM) | – | – | – | –
NS(=O)(=O)Nc1ccc(F)c([C@@H](NC(=O)N2CCN(CC(F)(F)F)C(=O)C2=O)C(=O)N[C@H]2Cc3cccc(C(=O)O)c3OB2O)c1 (single isomer, unassigned) [Example 219] | < 30 | D (D represents a potency <10 μM) | > 128 | 0.5 to 1 (≈ 0.741 to 1.48 µM) | 2 to 4 (≈ 2.97 to 5.93 µM) | 32 to 64 (≈ 47.5 to 94.9 µM) | 32 to 64 (≈ 47.5 to 94.9 µM) | 2 to 4 (≈ 2.97 to 5.93 µM) | > 128 | 32 to 64 (≈ 47.5 to 94.9 µM) | 32 to 64 (≈ 47.5 to 94.9 µM) | 8 to 16 (≈ 11.9 to 23.7 µM) | > 128 | 2 to 4 (≈ 2.97 to 5.93 µM) | – | – | – | –
NCCN1CCCN(C(=O)N[C@@H](C(=O)N[C@H]2Cc3cccc(C(=O)O)c3OB2O)c2c(F)cc(O)cc2F)C1=O (single isomer, unassigned) [Example 230] | 30 to 500 | C (C represents a potency between 10 and 30 μM) | > 128 | – | > 128 | – | – | – | > 128 | 32 to 64 (≈ 57 to 114 µM) | 2 to 4 (≈ 3.56 to 7.13 µM) | 32 to 64 (≈ 57 to 114 µM) | > 128 | 2 to 4 (≈ 3.56 to 7.13 µM) | > 128 | > 128 | > 128 | > 128
C[C@H]1CN(CCCN)C(=O)C(=O)N1C(=O)NC(C(=O)N[C@H]1Cc2cccc(C(=O)O)c2OB1O)c1ccc(O)c(F)c1F (stereo partly drawn) [Example 243, (3R)-3-(2-((S)-4-(3-aminopropyl)-6-methyl-2,3-dioxopiperazine-1-carboxamido)-2-(2,3-difluoro-4-hydroxyphenyl)acetamido)-2-hydroxy-3,4-dihydro-2H-benzo[e][1,2]oxaborinine-8-carboxylic acid] | – | D (D represents a potency <10 μM) | > 128 | – | 32 to 64 (≈ 53 to 106 µM) | – | – | – | 32 to 64 (≈ 53 to 106 µM) | 2 to 4 (≈ 3.31 to 6.63 µM) | 0.5 to 1 (≈ 0.829 to 1.66 µM) | 8 to 16 (≈ 13.3 to 26.5 µM) | > 128 | 2 to 4 (≈ 3.31 to 6.63 µM) | > 128 | 32 to 64 (≈ 53 to 106 µM) | 32 to 64 (≈ 53 to 106 µM) | 32 to 64 (≈ 53 to 106 µM)
